Key:
[1] = refractive index (Na D-line) (dimensionless); details: 101.33 kPa, Liquid, Standard Abbe refractometry
[2] = for surface tension liquid-gas: Capillary rise; for viscosity / mass density: Liquid; for viscosity: Falling or rolling sphere viscometry; for mass density: Vibrating tube method
[3] = xn = mol fraction of the nth substance listed; details: for surface tension liquid-gas: Capillary rise; for viscosity / mass density: Liquid; for viscosity: Falling or rolling sphere viscometry; for mass density: Vibrating tube method
[4] = refractive index (Na D-line) (dimensionless); xn = mol fraction of the nth substance listed; details: Liquid, Standard Abbe refractometry

OCc1ccccc1 [benzenemethanol]
Details	refractive index, 293.15 K	refractive index, 303.15 K	refractive index, 313.15 K	refractive index, 323.15 K	surface tension liquid-gas, 293.15 K [mN/m]	surface tension liquid-gas, 303.15 K [mN/m]	surface tension liquid-gas, 313.15 K [mN/m]	surface tension liquid-gas, 323.15 K [mN/m]
[1]	1.54049	1.53635	1.53215	1.52796	–	–	–	–
[2]	–	–	–	–	39.2	38.1	37.2	36.3

[2]
Details	mass density, 293.15 K [kg/m3]	mass density, 303.15 K [kg/m3]	mass density, 313.15 K [kg/m3]	mass density, 323.15 K [kg/m3]	viscosity, 293.15 K [mPa·s]	viscosity, 303.15 K [mPa·s]	viscosity, 313.15 K [mPa·s]	viscosity, 323.15 K [mPa·s]
100.8 kPa	1045.44	1037.45	1029.61	1021.5	6.287	4.579	3.335	2.545
101 kPa	1045.44	1037.45	1029.61	1021.5	6.287	4.579	3.335	2.545

OCc1ccccc1 [benzenemethanol] + CC(=O)OCc1ccccc1
[3], x2 = 0
Details	surface tension liquid-gas [mN/m]
293.15 K	39.2
303.15 K	38.1
313.15 K	37.2
323.15 K	36.3

101 kPa, x2 = 0
Details	mass density, [3] [kg/m3]	refractive index, [4]	viscosity, [3] [mPa·s]
293.15 K	1045.44	1.54049	6.287
303.15 K	1037.45	1.53635	4.579
313.15 K	1029.61	1.53215	3.335
323.15 K	1021.5	1.52796	2.545

CC(=O)OCc1ccccc1 [benzyl ethanoate]
Details	refractive index, 293.15 K	refractive index, 303.15 K	refractive index, 313.15 K	refractive index, 323.15 K	surface tension liquid-gas, 293.15 K [mN/m]	surface tension liquid-gas, 303.15 K [mN/m]	surface tension liquid-gas, 313.15 K [mN/m]	surface tension liquid-gas, 323.15 K [mN/m]
[1]	1.50245	1.49776	1.49309	1.48834	–	–	–	–
[2]	–	–	–	–	37.3	35.6	34.3	33.2

[2]
Details	mass density, 293.15 K [kg/m3]	mass density, 303.15 K [kg/m3]	mass density, 313.15 K [kg/m3]	mass density, 323.15 K [kg/m3]	viscosity, 293.15 K [mPa·s]	viscosity, 303.15 K [mPa·s]	viscosity, 313.15 K [mPa·s]	viscosity, 323.15 K [mPa·s]
100.8 kPa	1055.81	1046.74	1037.42	1027.51	2.324	1.836	1.474	1.256
101 kPa	1055.81	1046.74	1037.42	1027.51	2.324	1.836	1.474	1.256

CCO [ethanol]
Details	refractive index, 293.15 K	refractive index, 303.15 K	refractive index, 313.15 K	refractive index, 323.15 K	surface tension liquid-gas, 293.15 K [mN/m]	surface tension liquid-gas, 303.15 K [mN/m]	surface tension liquid-gas, 313.15 K [mN/m]	surface tension liquid-gas, 323.15 K [mN/m]
[1]	1.36137	1.35712	1.35292	1.34873	–	–	–	–
[2]	–	–	–	–	22.3	21.4	20.6	19.4

[2], 100.8 kPa
Details	mass density [kg/m3]	viscosity [mPa·s]
293.15 K	789.1	1.183
303.15 K	780.76	0.98
313.15 K	771.99	0.822
323.15 K	763.03	0.698

CCO [ethanol] + CC(=O)OCc1ccccc1
[3], x1 = 1
Details	surface tension liquid-gas [mN/m]
293.15 K	22.3
303.15 K	21.4
313.15 K	20.6
323.15 K	19.4

100.8 kPa, x1 = 1
Details	mass density, [3] [kg/m3]	refractive index, [4]	viscosity, [3] [mPa·s]
293.15 K	789.1	1.36137	1.183
303.15 K	780.76	1.35712	0.98
313.15 K	771.99	1.35292	0.822
323.15 K	763.03	1.34873	0.698

CCO [ethanol] + OCc1ccccc1
[3], x1 = 1
Details	surface tension liquid-gas [mN/m]
293.15 K	22.3
303.15 K	21.4
313.15 K	20.6
323.15 K	19.4

100.8 kPa, x1 = 1
Details	mass density, [3] [kg/m3]	refractive index, [4]	viscosity, [3] [mPa·s]
293.15 K	789.1	1.36137	1.183
303.15 K	780.76	1.35712	0.98
313.15 K	771.99	1.35292	0.822
323.15 K	763.03	1.34873	0.698

Source: the NIST ThermoML archive (doi:10.1021/je201009c)
